Experimental data from US20210346414A1, “APPLICATION OF GLYCOSIDES IN THE PREPARATION OF DRUGS FOR PREVENTING AND TREATING DIABETES COMPLICATIONS” (CHENGDU SINNOCEAN BIOTECHNOLOGY CO., LTD., priority 2018, published 2021).
Where “and” joins values, the source holds several entries; their conditions need not be identical. Identical values can stand only once.

Legend:
Type in all cases: in vivo
[1] = test system: spontaneous type II diabetic db/db mice; assay: Hypoglycemic effect test: tail vein blood glucose during 12 weeks of dosing
Description: (§1) Design of test groups: db/m group, db/db mice are divided into the following six groups: blank control group (no glucose), negative control group (model group), positive control group (350 mg/kg metformin), H2 low dose group (40 mg/kg), H2 medium dose group (80 mg/kg), H2 high dose group (160 mg/kg); • Number of animals: 12 mice for each group; • Sex: male;
(§2) Administration frequency: once a day, for 12 weeks; db/m group, blank control group and negative control group: receiving distilled water; positive control group: positive drug metformin; other administration groups: receiving different dose of test drug H2, respectively; the day of administration was defined as the first day of the test.
Sampling frequency: blood glucose was detected once every 2 weeks after grouping, and then after glucose was administrated, the blood glucose was further measured. Sampling site: tail vein; sampling volume: about 1 drop; blood glucose detection: real-time detection by blood glucose meter.

[2] = test system: spontaneous type II diabetic db/db mice; assay: Prevention and treatment of retinopathy: pathological staining of eyeball, grading of retinal ganglion cell layer degeneration; design: key to Left eye / Right eye / Retinal degeneration, ganglion cell layer (right eye) / Retinal degeneration, ganglion cell layer (left eye): “N” means normal tissue morphology and structure; “E” means changed tissue morphology and structure; “—” means no such pathological change; conditions: 12 weeks
Description: as §1, §2
During the test period, compared with the animals in normal control group, the retinal ganglion cell layer of animals in each group had different degrees of degeneration except for the test drug H2 high-dose group. According to the severity of the degeneration of the retinal ganglion cell layers, there were 0-4 grades according to the pathological grading principle in the literature
(Fermented Milk has Anti-diabetic Effects: Anti-diabetic Effect of Fermented Milk Containing Conjugated Linoleic Acid on Type II Diabetes Mellitus, Korean J. Food Sci. An., Vol. 36, No. 2 (2016)). The larger the value, the more severe the disease.

[3] = test system: spontaneous type II diabetic db/db mice; assay: Kidney function: blood urea nitrogen (UREA), blood creatinine (CREA) and renal index before and after administration; conditions: MEAN ± SEM
Description: as §1, §2
(1) Changes of blood urea nitrogen (UREA) and blood creatinine (CREA) as well as renal index before and after administration

[4] = test system: spontaneous type II diabetic db/db mice; assay: Kidney histopathology grading after treatment; design: key to kidney / Basophilic changes in renal tubules / Monocyte infiltration / Hypertrophy of renal tubular epithelial cells / Dilation of the renal pelvis / Protein casts / Glomerular dilation / Glomerulosclerosis: “N” means normal tissue morphology and structure; “E” means changed tissue morphology and structure; “—” means no such pathological change; conditions: 12 weeks
Description: as §1, §2
After completion of the test, the kidney was dissected and collected. The histopathological results of the kidney indicated the grades by referring to the principles and standards in literature
(Fermented Milk has Anti-diabetic Effects: Anti-diabetic Effect of Fermented Milk Containing Conjugated Linoleic Acid on Type II Diabetes Mellitus, Korean J. Food Sci. An., Vol. 36, No. 2 (2016)).

[5] = metformin 350 mg/kg oral gavage once a day, MEAN ± SEM
[6] = metformin 350 mg/kg oral gavage once a day, individual animals
[7] = metformin 350 mg/kg oral gavage once a day, individual animals, grades 0-4, larger = more severe
[8] = metformin 350 mg/kg oral gavage once a day, 12 weeks
[9] = metformin 350 mg/kg oral gavage once a day, individual animals, grade

CN(C)C(=N)N=C(N)N [metformin, Metformin]
Blood glucose concentration, Administrating for 15 days [1, 5]: 6.95 ± 0.57 mmol/L
Blood glucose concentration, Administrating for 29 days [1, 5]: 8.30 ± 0.94 mmol/L
Blood glucose concentration, Administrating for 43 days [1, 5]: 8.93 ± 1.15 mmol/L
Blood glucose concentration, Administrating for 57 days [1, 5]: 8.92 ± 1.12 mmol/L
Blood glucose concentration, Administrating for 72 days [1, 5]: 8.80 ± 1.11 mmol/L
Blood glucose concentration, Administrating for one day [1, 5]: 13.78 ± 1.74 mmol/L
Hypoglycemic effect (in words) ([1]; metformin 350 mg/kg, vs. negative control group, from the 15th day, P<0.001): could significantly reduce the blood sugar of db/db mice
Left eye [2, 6]: E (3×) and N (6×)
Right eye [2, 6]: N (8×) and E
Retinal degeneration, ganglion cell layer (left eye) [2, 7]: 2 (2×) and — (6×) and 1
Retinal degeneration, ganglion cell layer (right eye) [2, 7]: — (8×) and 1
Improvement of retinopathy (in words) ([2]; metformin 350 mg/kg, vs. negative control group): hardly improved the symptoms of retinopathy
Before administration CREA ([3]; metformin 350 mg/kg group, before administration (baseline)): 4.50 ± 1.38 µmol/L
Change rate of CREA [3, 8]: 0.83 ± 0.17
Renal index [3, 8]: 0.43 ± 0.03%
kidney [4, 6]: E
Basophilic changes in renal tubules [4, 9]: — (8×) and 1
Dilation of the renal pelvis [4, 9]: —
Glomerular dilation [4, 9]: —
Glomerulosclerosis [4, 9]: 1 and — (8×)
Hypertrophy of renal tubular epithelial cells [4, 9]: —
Monocyte infiltration [4, 9]: —
Proliferation of glomerular mesangum or mesangial cells [4, 9]: 1 (3×) and 2 (6×)
Protein casts [4, 9]: —
Proliferation of glomerular mesangum or mesangial cells (in words) ([4]; metformin 350 mg/kg, no statistical difference vs. negative control group): showed the effect trend of alleviating the proliferation of glomerular mesangum or mesangial cells
